EC50, SI and CC50 data for 47 compounds are collected here from patent publication US6545007B2, “Methods for inhibiting the transmission of HIV using topically applied substituted 6-benzyl-4-oxopyrimidines” (Idenix (Cayman) Limited, priority 2000, dated 2003).

The subject of one series is HIV-1 (IIIB strain). The class given is cell-based. Conditions: for EC50: anti-HIV-1 activity, HIV-1-infected MT-4 cells; for SI: selectivity index (CC50/EC50). Here is the method: Compounds. Compounds were solubilized in DMSO at 200 mM and then diluted into culture medium.
(§1) Cells and viruses. MT-4, C8166,H9/IIIB and CEM cells were grown at 37° C. in a 5% CO2 atmosphere in RPMI 1640 medium, supplemented with 10% fetal calf serum (FCS), 100 IU/mL penicillin and 100 μg/mL streptomycin. Cell cultures were checked periodically for the absence of mycoplasma contamination with a MycoTect Kit (Gibco). Human immunodeficiency virus type-I (HIV-1, IIIB strain) was obtained from supernatants of persistently infected H9/IIIB cells.
HIV Titration. Titration of HIV was performed in C8166 cells by the standard limiting dilution method (dilution 1:2, four replica wells per dilution) in 96-well plates. The infectious virus titre was determined by light microscope scoring of cytopathicity after 4 days of incubation and the virus titres were expressed as CCID50/mL.
(§2) Anti-HIV Assays. Activity of the compounds against HIV-1 and HIV-2 multiplication in acutely infected cells was based on the inhibition of virus-induced cytopathicity in MT-4 and C8166 cells, respectively. Briefly, 50 μL of culture medium containing 1×10^4 cells were added to each well of flat-bottom microtiter trays containing 50 μl of culture medium with or without various concentrations of the test compounds. Then 20 μL of an HIV suspension containing 100 CCID50 were added. After a 4-day incubation at 37° C., the number of viable cells was determined by the 3-(4,5-dimethylthiazol-[…])-2,5-diphenyltetrazolium bromide (MTT) method. Cytotoxicity of the compounds was evaluated in parallel with their antiviral activity. It was based on the viability of mock-infected cells, as monitored by the MTT method.

A further series has as its system mock-infected MT-4 cells. The experiment in a line: Cytotoxicity: viability of mock-infected cells by the MTT method. The class given is cell-based, human. Here is the method:
as §1, §2
Background: Tetrazolium dyes change colour on reduction, which living cells bring about.

Turning to `CC(c1ccccc1)c1cc(=O)[nH]c(SC2CCCCC2)n1` (stereo not drawn) [MC 898], in the series on HIV-1 (IIIB strain), the midpoint of the response, the EC50, lay at 600 nM and the SI was found to be 248. Further, the CC50 – broadly, the concentration that lowers cell viability or growth by half – with mock-infected MT-4 cells was found to be 149 µM.
In the same order, the values of `CCC(c1ccccc1)c1cc(=O)[nH]c(SC(C)C)n1` (stereo not drawn) [MC 899] are 800 nM, 250 and 200 µM.
For `CCC(c1ccccc1)c1cc(=O)[nH]c(SC2CCCC2)n1` (stereo not drawn) [MC 900], in that order: 1000 nM, over 200 and over 200 µM.
For `CCC(c1ccccc1)c1cc(=O)[nH]c(SC2CCCCC2)n1` (stereo not drawn) [MC 903], in the series with HIV-1 (IIIB strain), the EC50 – broadly, the concentration giving half of the maximal effect – was 1300 nM and the SI is reported as over 154. The compound also registered a half-maximal cytotoxic concentration (CC50) in the series with mock-infected MT-4 cells of over 200 µM.
For `CCCCSc1nc(Cc2c(F)cccc2F)c(C)c(=O)[nH]1` [MC 905], in that order: 80 nM, >2,500 and over 200 µM.
For `CCC(C)Sc1nc(Cc2ccccc2Cl)c(C)c(=O)[nH]1` (stereo not drawn) [MC 909], in that order: 270 nM, over 741 and over 200 µM.
For `CCC(C)Sc1nc(Cc2cccc(Cl)c2)c(C)c(=O)[nH]1` (stereo not drawn) [MC 910], in that order: 960 nM, over 208 and over 200 µM.
Take `CCC(C)Sc1nc(Cc2ccc(Cl)cc2)c(C)c(=O)[nH]1` (stereo not drawn) [MC 911]: in the series with HIV-1 (IIIB strain), the response was half-maximal at 9500 nM (EC50) and the SI amounted to 20. In the series on mock-infected MT-4 cells, the 50% cytotoxic concentration (CC50) is over 200 µM.
In the same order, the values of `CSc1nc(Cc2c(Cl)cccc2Cl)c(C)c(=O)[nH]1` [MC 912] are 3200 nM, over 62 and over 200 µM.
For `CCC(C)Sc1nc(Cc2ccccc2F)c(C)c(=O)[nH]1` (stereo not drawn) [MC 913], in that order: 410 nM, 341 and 140 µM.
For `Cc1c(Cc2c(Cl)cccc2Cl)nc(SC(C)C)[nH]c1=O` [MC 914], in that order: 1300 nM, over 154 and over 200 µM.
Regarding `Cc1c(Cc2c(Cl)cccc2Cl)nc(SC2CCCC2)[nH]c1=O` [MC 915], in the series on HIV-1 (IIIB strain), the response was half-maximal at 1800 nM (EC50) and the SI is reported as over 111. Also, the CC50 in the series with mock-infected MT-4 cells is over 200 µM.
For `Cc1c(Cc2c(Cl)cccc2Cl)nc(SCC(C)C)[nH]c1=O` [MC 916], in that order: 1200 nM, over 166 and over 200 µM.
In the same order, the values of `Cc1c(Cc2c(Cl)cccc2Cl)nc(SC2CCCCC2)[nH]c1=O` [MC 917] are 22000 nM, over 9 and over 200 µM.
In the series on HIV-1 (IIIB strain), `CCC(C)Sc1nc(Cc2ccc(F)cc2)c(C)c(=O)[nH]1` (stereo not drawn) [MC 919] gave an EC50 of 11000 nM and an SI of 9.5. The compound further returned a CC50 in the series with mock-infected MT-4 cells of 105 µM.
In the series with HIV-1 (IIIB strain), `CCCCSc1nc(Cc2c(Cl)cccc2Cl)c(C)c(=O)[nH]1` [MC 920] had a 50% effective concentration (EC50) of 1170 nM and an SI of over 171. The half-maximal cytotoxic concentration (CC50) in the series on mock-infected MT-4 cells is over 200 µM.
For `Cc1c(Cc2c(F)cccc2F)nc(SCC(C)C)[nH]c1=O` [MC 921], in that order: 100 nM, 640 and 64 µM.
Consider `Cc1c(Cc2c(F)cccc2F)nc(SC2CCCC2)[nH]c1=O` [MC 922], for which, in the series on HIV-1 (IIIB strain), a half-maximal effect (EC50) was put at 80 nM and the SI is given as >2,500. This compound came in with a 50% cytotoxic concentration (CC50) with mock-infected MT-4 cells of over 200 µM.
Turning to `Cc1c(Cc2c(F)cccc2F)nc(SC2CCCCC2)[nH]c1=O` [MC 923], in the series with HIV-1 (IIIB strain), the EC50 amounted to 90 nM and the SI is on record as >2,222. In addition, in the series with mock-infected MT-4 cells, the CC50 was over 200 µM.
In the same order, the values of `CCC(C)Sc1nc(Cc2ccc([N+](=O)[O-])cc2)c(C)c(=O)[nH]1` (stereo not drawn) [MC 924] are 2000 nM, over 100 and over 200 µM.
In the series on HIV-1 (IIIB strain), `CCC(C)Sc1nc(Cc2cccc([N+](=O)[O-])c2)c(C)c(=O)[nH]1` (stereo not drawn) [MC 925] displayed an EC50 of 350 nM and an SI of over 571. For the same compound, the CC50 in the series with mock-infected MT-4 cells was over 200 µM.
In the same order, the values of `CCC(C)Nc1nc(Cc2c(F)cccc2F)cc(=O)[nH]1` (stereo not drawn) [MC 945] are 130 nM, >1,540 and over 200 µM.
For `CCC(C)Sc1nc(Cc2ccccc2OC)cc(=O)[nH]1` (stereo not drawn) [MC 952], in that order: 1960 nM, over 208 and over 200 µM.
For the compound `CCC(C)Sc1nc(Cc2cccc(OC)c2)cc(=O)[nH]1` (stereo not drawn) [MC 957], in the series with HIV-1 (IIIB strain), the half-maximal effective concentration (EC50) turned out to be 1200 nM and the SI is on record as over 166. The compound further had a CC50 in the series on mock-infected MT-4 cells of over 200 µM.
For `CCC(C)Sc1nc(Cc2ccc(C(F)(F)F)cc2)cc(=O)[nH]1` (stereo not drawn) [MC 959], in that order: 25000 nM, 8 and 200 µM.
For `CCC(C)Sc1nc(Cc2ccc(N)cc2)cc(=O)[nH]1` (stereo not drawn) [MC 960], in that order: 23000 nM, over 8 and over 200 µM.
For `CCC(C)Sc1nc(Cc2ccc(OC)cc2)cc(=O)[nH]1` (stereo not drawn) [MC 964], in that order: 14000 nM, 10.5 and 147 µM.
In the case of `CCC(c1cc(=O)[nH]c(SC(C)C)n1)c1cccc2ccccc12` (stereo not drawn) [MC 969], in the series on HIV-1 (IIIB strain), the EC50 worked out at 1500 nM and the SI came to 33.3. Besides, the CC50 in the series with mock-infected MT-4 cells is 50 µM.
In the same order, the values of `CC(C)Sc1nc(C(C)c2cccc3ccccc23)cc(=O)[nH]1` (stereo not drawn) [MC 971] are 1100 nM, 108 and 119 µM.
In the series with HIV-1 (IIIB strain), `CC(c1cc(=O)[nH]c(SC2CCCC2)n1)c1cccc2ccccc12` (stereo not drawn) [MC 972] gave a concentration for a half-maximal effect (EC50) of 500 nM and an SI of 186. In the series with mock-infected MT-4 cells, this compound displayed a CC50 of 93 µM.
For `CCC(c1cc(=O)[nH]c(SC2CCCC2)n1)c1cccc2ccccc12` (stereo not drawn) [MC 973], in that order: 3000 nM, 17 and 51 µM.
In the same order, the values of `CC(c1cc(=O)[nH]c(SC2CCCCC2)n1)c1cccc2ccccc12` (stereo not drawn) [MC 974] are 140 nM, 321.4 and 45 µM.
In the series on HIV-1 (IIIB strain), `CCC(c1cc(=O)[nH]c(SC2CCCCC2)n1)c1cccc2ccccc12` (stereo not drawn) [MC 975] returned an EC50 of 180 nM and an SI of 94. In addition, the cytotoxic concentration (CC50) with mock-infected MT-4 cells came to 16.9 µM.
In the same order, the values of `CC(C)Nc1nc(Cc2c(F)cccc2F)cc(=O)[nH]1` [MC 979] are 380 nM, over 526 and over 200 µM.
For `O=c1cc(Cc2c(F)cccc2F)nc(NC2CC2)[nH]1` [MC 980], in that order: 3170 nM, over 63 and over 200 µM.
For `CC(c1cc(=O)[nH]c(SC2CCCC2)n1)c1c(Cl)cccc1Cl` (stereo not drawn) [MC 996], in that order: 1000 nM, 78.3 and 78.3 µM.
For the compound `CCC(c1cc(=O)[nH]c(SC(C)C)n1)c1c(Cl)cccc1Cl` (stereo not drawn) [MC 1000], in the series with HIV-1 (IIIB strain), the concentration for a half-maximal effect (EC50) worked out at 400 nM and the SI is reported as over 500. Besides, in the series on mock-infected MT-4 cells, the 50% cytotoxic concentration (CC50) is over 200 µM.
In the same order, the values of `CC(C)Sc1nc(C(C)c2c(Cl)cccc2Cl)cc(=O)[nH]1` (stereo not drawn) [MC 1001] are 1200 nM, 97.5 and 117 µM.
For `CCC(c1cc(=O)[nH]c(SC2CCCC2)n1)c1c(Cl)cccc1Cl` (stereo not drawn) [MC 1002], in that order: 1000 nM, 23.4 and 23.4 µM.
For `CCC(c1cc(=O)[nH]c(SC2CCCCC2)n1)c1c(Cl)cccc1Cl` (stereo not drawn) [MC 1003], in that order: 3600 nM, over 55.5 and over 200 µM.
Take `CCC(c1cc(=O)[nH]c(SC(C)C)n1)c1c(F)cccc1F` (stereo not drawn) [MC 1005]: in the series on HIV-1 (IIIB strain), the EC50 was determined as 80 nM and the SI was determined as 875. Besides, in the series on mock-infected MT-4 cells, half-maximal cytotoxicity (CC50) was put at 70 µM.
In the same order, the values of `CCC(c1cc(=O)[nH]c(SC2CCCC2)n1)c1c(F)cccc1F` (stereo not drawn) [MC 1006] are 150 nM, 1,333 and 200 µM.
For `CC(C)Sc1nc(C(C)c2c(F)cccc2F)cc(=O)[nH]1` (stereo not drawn) [MC 1007], in that order: 50 nM, 3,340 and 167 µM.
In the same order, the values of `CC(c1cc(=O)[nH]c(SC2CCCC2)n1)c1c(F)cccc1F` (stereo not drawn) [MC 1008] are 30 nM, >6,666 and over 200 µM.
On to `CC(c1cc(=O)[nH]c(SC2CCCCC2)n1)c1c(F)cccc1F` (stereo not drawn) [MC 1013], for which, in the series with HIV-1 (IIIB strain), the EC50 is 160 nM and the SI was >1,250. Moreover, the CC50 in the series with mock-infected MT-4 cells was over 200 µM.
Turning to `CCC(c1cc(=O)[nH]c(SC2CCCCC2)n1)c1c(F)cccc1F` (stereo not drawn) [MC 1014], in the series with HIV-1 (IIIB strain), a half-maximal effect (EC50) was put at 50 nM and the SI is recorded as 2,600. For the same compound, the midpoint of cytotoxicity in the series with mock-infected MT-4 cells, the CC50, lay at 130 µM.
In the same order, the values of `CC(c1cc(=O)[nH]c(SC2CCCCC2)n1)c1c(Cl)cccc1Cl` (stereo not drawn) [MC 1016] are 2900 nM, over 69 and over 200 µM.
